# Source: US4293489A, “Derivatives of A-30912A nucleus” (Eli Lilly and Company, priority 1980, dated 1981)
# Like-named read-outs stand apart in the source and are kept apart here. Starred links: 1 amine or outer side, 2 acyl side, 3 side chain; linkers in the order of their positions; H or OH if unused. Positions of bridges follow the written chain, without caps; N, C: chain ends. Non-standard residues stand in square brackets, D forms with d. Residues, ends and D or L forms follow the SMILES beside them. *: point of attachment. Orn(4R-OH,5R-OH) = O=C([C@H](C[C@@H](O)[C@@H](O)N[*:3])N[*:1])[*:2]; hTyr(3S-OH,4S-OH) = N[C@H](C(=O)O)[C@H](O)[C@@H](O)c1ccc(O)cc1; Benzoyl(4-dodecyloxy) = CCCCCCCCCCCCOc1ccc(C(=O)*)cc1; Benzoyl(4-OC10H21) = CCCCCCCCCCOc1ccc(C(=O)*)cc1; Pro(3S-OH,4S-Me) = C[C@H]1CN[C@H](C(=O)O)[C@H]1O; Benzoyl(4-octyloxy) = CCCCCCCCOc1ccc(C(=O)*)cc1; X2 = CCCCCCCCCCCCCCS(=O)(=O)c1ccc(C(=O)*)cc1; X5 = CCCCCCCCCCCCS(=O)(=O)c1ccc(C(=O)*)cc1; X28 = CCCCCCCC[S+]([O-])c1ccc(C(=O)*)cc1; X20 = CCCCCCCCCCCCCCOc1ccc(C(=O)*)cc1; X24 = CCCCCCCCCCCCCCOc1cccc(C(=O)*)c1; X27 = CCCCCCCCCCCCOc1cccc(CC(=O)*)c1; X3 = CCCCCCCCCCCCCCSc1ccc(C(=O)*)cc1; X10 = CCCCCCCCCCCCOc1cccc(C(=O)*)c1; X1 = CCCCCCCCCCCCSc1ccc(C(=O)*)cc1; Hyp = O=C(O)[C@@H]1C[C@@H](O)CN1; X6 = CCCCCCCCCCSc1ccc(C(=O)*)cc1; X9 = CCCCCCCCCCOc1cccc(C(=O)*)c1; X13 = CCCCCCCCOc1cccc(C(=O)*)c1; X7 = CCCCCCCCSc1ccc(C(=O)*)cc1
# Legend:
# [1] = test system: Candida albicans A-26; test: Therapeutic activity against Candida albicans A-26 infection in mice, ED50; format: in vivo; conditions: doses 0, 4 and 24 hours post infection, increase in survival time vs control, Reed-Muench
# Procedure: (§1) The results of in vivo tests to evaluate the effectiveness of the compounds of Examples 3 and 4 against an infection caused by Candida albicans A-26 in mice are given in Table 13, where activity is measured by the ED50 value (the dose in mg/kg. required to cure 50% of the test animals). In a separate test, the results of which are also summarized in Table 13, activity is indicated by the lowest dose at which a significant anti-fungal effect is observed. In this test, groups of male albino mice (specific pathogen free), weighing 18 to 20 grams, are infected intravenously with Candida albicans A-26. The animals are X-irradiated 24 hours prior to infection at about 50 roentgens per minute for 8 minutes (400 total dose) to reduce immune responses to the infecting organism. At 0, 4, and 24 hours post infection each group of mice is given graded doses subcutaneously of the test compound as a suspension in 33% polyethylene glycol (PEG)-water. The day of death for each animal is recorded.
# (§2) *Dosage Schedules: A. = 40, 20, 15 and 10 mg/kg; Dosages given 0, 4, and
# (§3) 24 hours post injection as suspension of test compound in 30% PEGH2
# (§4) O. Number of mice receiving test compounds at each dosage level: 6 mice
# (§5) per group. Number of mice in control (untreated) group: 10 mice per group
# **As measured by increase in survival time of treated animals versus
# control, calculated by method of Reed v Mueuch, American J. Hygiene, 27,
# [2] = test system: Candida albicans A-26; test: Therapeutic activity against Candida albicans A-26 infection in X-irradiated mice, lowest active dose; format: in vivo; conditions: A26, light or radiation study, sc
# Procedure: as §1, §2, §3, §4, §5
# [3] = Candida albicans, A26, sc, read-out: ED50
# [4] = X-irradiated mice, subcutaneous at 0, 4 and 24 hours post infection, survival, read-out: Lowest Active Dose
# [5] = read-out: Lowest Active Dose, X-irradiated mice, subcutaneous at 0, 4 and 24 hours post infection, survival
SMILES,"ED50 [1, 3] [mg/kg]","minimal effective dose [2, 4] [mg/kg]","minimal effective dose [2, 5] [mg/kg]",ED50 [1] [mg/kg]
"CCCCCCCCCCCCCCOc1cccc(C(=O)N[C@H]2C[C@@H](O)[C@@H](O)NC(=O)[C@@H]3[C@@H](O)[C@@H](C)CN3C(=O)[C@H]([C@@H](C)O)NC(=O)[C@H]([C@H](O)[C@@H](O)c3ccc(O)cc3)NC(=O)[C@@H]3C[C@@H](O)CN3C(=O)[C@H]([C@@H](C)O)NC2=O)c1 (X24-[Orn(4R-OH,5R-OH)]T[Hyp][hTyr(3S-OH,4S-OH)]T[Pro(3S-OH,4S-Me)]; lactam 1-C)",> 50,> 40,–,–
"CCCCCCCCCCCCOc1cccc(CC(=O)N[C@H]2C[C@@H](O)[C@@H](O)NC(=O)[C@@H]3[C@@H](O)[C@@H](C)CN3C(=O)[C@H]([C@@H](C)O)NC(=O)[C@H]([C@H](O)[C@@H](O)c3ccc(O)cc3)NC(=O)[C@@H]3C[C@@H](O)CN3C(=O)[C@H]([C@@H](C)O)NC2=O)c1 (X27-[Orn(4R-OH,5R-OH)]T[Hyp][hTyr(3S-OH,4S-OH)]T[Pro(3S-OH,4S-Me)]; lactam 1-C)",7.4,20,–,–
"CCCCCCCC[S+]([O-])c1ccc(C(=O)N[C@H]2C[C@@H](O)[C@@H](O)NC(=O)[C@@H]3[C@@H](O)[C@@H](C)CN3C(=O)[C@H]([C@@H](C)O)NC(=O)[C@H]([C@H](O)[C@@H](O)c3ccc(O)cc3)NC(=O)[C@@H]3C[C@@H](O)CN3C(=O)[C@H]([C@@H](C)O)NC2=O)cc1 (stereo partly drawn) (X28-[Orn(4R-OH,5R-OH)]T[Hyp][hTyr(3S-OH,4S-OH)]T[Pro(3S-OH,4S-Me)]; lactam 1-C)",56.6,> 40,–,–
"CCCCCCCCOc1ccc(C(=O)N[C@H]2C[C@@H](O)[C@@H](O)NC(=O)[C@@H]3[C@@H](O)[C@@H](C)CN3C(=O)[C@H]([C@@H](C)O)NC(=O)[C@H]([C@H](O)[C@@H](O)c3ccc(O)cc3)NC(=O)[C@@H]3C[C@@H](O)CN3C(=O)[C@H]([C@@H](C)O)NC2=O)cc1 [drawing 151] ({Benzoyl(4-octyloxy)}-[Orn(4R-OH,5R-OH)]T[Hyp][hTyr(3S-OH,4S-OH)]T[Pro(3S-OH,4S-Me)]; lactam 1-C)",–,< 12.5,10,–
"CCCCCCCCCCOc1ccc(C(=O)N[C@H]2C[C@@H](O)[C@@H](O)NC(=O)[C@@H]3[C@@H](O)[C@@H](C)CN3C(=O)[C@H]([C@@H](C)O)NC(=O)[C@H]([C@H](O)[C@@H](O)c3ccc(O)cc3)NC(=O)[C@@H]3C[C@@H](O)CN3C(=O)[C@H]([C@@H](C)O)NC2=O)cc1 [drawing 152] ({Benzoyl(4-OC10H21)}-[Orn(4R-OH,5R-OH)]T[Hyp][hTyr(3S-OH,4S-OH)]T[Pro(3S-OH,4S-Me)]; lactam 1-C)",8,–,5,–
"CCCCCCCCCCCCOc1ccc(C(=O)N[C@H]2C[C@@H](O)[C@@H](O)NC(=O)[C@@H]3[C@@H](O)[C@@H](C)CN3C(=O)[C@H]([C@@H](C)O)NC(=O)[C@H]([C@H](O)[C@@H](O)c3ccc(O)cc3)NC(=O)[C@@H]3C[C@@H](O)CN3C(=O)[C@H]([C@@H](C)O)NC2=O)cc1 [drawing 153] ({Benzoyl(4-dodecyloxy)}-[Orn(4R-OH,5R-OH)]T[Hyp][hTyr(3S-OH,4S-OH)]T[Pro(3S-OH,4S-Me)]; lactam 1-C)",< 5,2.5,≤ 5,3.9
"CCCCCCCCCCCCCCOc1ccc(C(=O)N[C@H]2C[C@@H](O)[C@@H](O)NC(=O)[C@@H]3[C@@H](O)[C@@H](C)CN3C(=O)[C@H]([C@@H](C)O)NC(=O)[C@H]([C@H](O)[C@@H](O)c3ccc(O)cc3)NC(=O)[C@@H]3C[C@@H](O)CN3C(=O)[C@H]([C@@H](C)O)NC2=O)cc1 [drawing 154] (X20-[Orn(4R-OH,5R-OH)]T[Hyp][hTyr(3S-OH,4S-OH)]T[Pro(3S-OH,4S-Me)]; lactam 1-C)",3,–,5,–
"CCCCCCCCSc1ccc(C(=O)N[C@H]2C[C@@H](O)[C@@H](O)NC(=O)[C@@H]3[C@@H](O)[C@@H](C)CN3C(=O)[C@H]([C@@H](C)O)NC(=O)[C@H]([C@H](O)[C@@H](O)c3ccc(O)cc3)NC(=O)[C@@H]3C[C@@H](O)CN3C(=O)[C@H]([C@@H](C)O)NC2=O)cc1 [drawing 155] (X7-[Orn(4R-OH,5R-OH)]T[Hyp][hTyr(3S-OH,4S-OH)]T[Pro(3S-OH,4S-Me)]; lactam 1-C)",37.4,–,10,–
"CCCCCCCCCCSc1ccc(C(=O)N[C@H]2C[C@@H](O)[C@@H](O)NC(=O)[C@@H]3[C@@H](O)[C@@H](C)CN3C(=O)[C@H]([C@@H](C)O)NC(=O)[C@H]([C@H](O)[C@@H](O)c3ccc(O)cc3)NC(=O)[C@@H]3C[C@@H](O)CN3C(=O)[C@H]([C@@H](C)O)NC2=O)cc1 [drawing 156] (X6-[Orn(4R-OH,5R-OH)]T[Hyp][hTyr(3S-OH,4S-OH)]T[Pro(3S-OH,4S-Me)]; lactam 1-C)",28,20,–,–
"CCCCCCCCCCCCSc1ccc(C(=O)N[C@H]2C[C@@H](O)[C@@H](O)NC(=O)[C@@H]3[C@@H](O)[C@@H](C)CN3C(=O)[C@H]([C@@H](C)O)NC(=O)[C@H]([C@H](O)[C@@H](O)c3ccc(O)cc3)NC(=O)[C@@H]3C[C@@H](O)CN3C(=O)[C@H]([C@@H](C)O)NC2=O)cc1 [drawing 157] (X1-[Orn(4R-OH,5R-OH)]T[Hyp][hTyr(3S-OH,4S-OH)]T[Pro(3S-OH,4S-Me)]; lactam 1-C)",2,< 1.25,–,–
"CCCCCCCCCCCCCCSc1ccc(C(=O)N[C@H]2C[C@@H](O)[C@@H](O)NC(=O)[C@@H]3[C@@H](O)[C@@H](C)CN3C(=O)[C@H]([C@@H](C)O)NC(=O)[C@H]([C@H](O)[C@@H](O)c3ccc(O)cc3)NC(=O)[C@@H]3C[C@@H](O)CN3C(=O)[C@H]([C@@H](C)O)NC2=O)cc1 [drawing 158] (X3-[Orn(4R-OH,5R-OH)]T[Hyp][hTyr(3S-OH,4S-OH)]T[Pro(3S-OH,4S-Me)]; lactam 1-C)",20,2.5,–,–
"CCCCCCCCCCCCS(=O)(=O)c1ccc(C(=O)N[C@H]2C[C@@H](O)[C@@H](O)NC(=O)[C@@H]3[C@@H](O)[C@@H](C)CN3C(=O)[C@H]([C@@H](C)O)NC(=O)[C@H]([C@H](O)[C@@H](O)c3ccc(O)cc3)NC(=O)[C@@H]3C[C@@H](O)CN3C(=O)[C@H]([C@@H](C)O)NC2=O)cc1 [drawing 161] (X5-[Orn(4R-OH,5R-OH)]T[Hyp][hTyr(3S-OH,4S-OH)]T[Pro(3S-OH,4S-Me)]; lactam 1-C)",53,20,–,–
"CCCCCCCCCCCCCCS(=O)(=O)c1ccc(C(=O)N[C@H]2C[C@@H](O)[C@@H](O)NC(=O)[C@@H]3[C@@H](O)[C@@H](C)CN3C(=O)[C@H]([C@@H](C)O)NC(=O)[C@H]([C@H](O)[C@@H](O)c3ccc(O)cc3)NC(=O)[C@@H]3C[C@@H](O)CN3C(=O)[C@H]([C@@H](C)O)NC2=O)cc1 [drawing 162] (X2-[Orn(4R-OH,5R-OH)]T[Hyp][hTyr(3S-OH,4S-OH)]T[Pro(3S-OH,4S-Me)]; lactam 1-C)",11,–,5,–
"CCCCCCCCOc1cccc(C(=O)N[C@H]2C[C@@H](O)[C@@H](O)NC(=O)[C@@H]3[C@@H](O)[C@@H](C)CN3C(=O)[C@H]([C@@H](C)O)NC(=O)[C@H]([C@H](O)[C@@H](O)c3ccc(O)cc3)NC(=O)[C@@H]3C[C@@H](O)CN3C(=O)[C@H]([C@@H](C)O)NC2=O)c1 [drawing 163] (X13-[Orn(4R-OH,5R-OH)]T[Hyp][hTyr(3S-OH,4S-OH)]T[Pro(3S-OH,4S-Me)]; lactam 1-C)",> 50,40,–,–
"CCCCCCCCCCOc1cccc(C(=O)N[C@H]2C[C@@H](O)[C@@H](O)NC(=O)[C@@H]3[C@@H](O)[C@@H](C)CN3C(=O)[C@H]([C@@H](C)O)NC(=O)[C@H]([C@H](O)[C@@H](O)c3ccc(O)cc3)NC(=O)[C@@H]3C[C@@H](O)CN3C(=O)[C@H]([C@@H](C)O)NC2=O)c1 [drawing 164] (X9-[Orn(4R-OH,5R-OH)]T[Hyp][hTyr(3S-OH,4S-OH)]T[Pro(3S-OH,4S-Me)]; lactam 1-C)",> 50,> 40,–,–
"CCCCCCCCCCCCOc1cccc(C(=O)N[C@H]2C[C@@H](O)[C@@H](O)NC(=O)[C@@H]3[C@@H](O)[C@@H](C)CN3C(=O)[C@H]([C@@H](C)O)NC(=O)[C@H]([C@H](O)[C@@H](O)c3ccc(O)cc3)NC(=O)[C@@H]3C[C@@H](O)CN3C(=O)[C@H]([C@@H](C)O)NC2=O)c1 [drawing 165] (X10-[Orn(4R-OH,5R-OH)]T[Hyp][hTyr(3S-OH,4S-OH)]T[Pro(3S-OH,4S-Me)]; lactam 1-C)",> 50,> 40,–,–
